The structures appear in SMILES notation. Where “and” joins values, the source holds several entries; their conditions need not be identical. Equal values may be shown once.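 Method: 48-hour compound exposure of cells in 96-well plates, five concentrations, linear interpolation of endpoints. Abbreviation: GI50, concentration required for 50% inhibition of growth. Definition used: TGI = concentration required for complete inhibition of growth.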

Assay in all cases: DTP human tumour cell line panel, 48 h
For test [1], the system named is M14 melanoma.
Test [2] has as its system UACC-62 melanoma.
For test [3], the system named is NCI-H23 lung.
In test [4] the test system is SK-MEL-5 melanoma.
In test [5] the test system is 786-0 renal.
Test [6] concerns NCI-H226 lung.
Test [7] deals with A498 renal.
Test [8] has as its system A549 NSCLC.
Test [9] has as its system K-562 leukemia.
In test [10] the test system is SK-MEL-28 melanoma.

By GI50 is commonly meant the concentration that inhibits growth by half. Broadly, the TGI is the concentration giving total growth inhibition. For `CO[C@@]12[C@H](COC(N)=O)C3=C(C(=O)C(C)=C(N)C3=O)N1C[C@@H]1N[C@@H]12`, the GI50 is 1.09 µM in [1]; 0.952 µM in test [2]; 0.77 µM in test [3]; 1.6 µM in [4]; 0.717 µM in [5]; 1.35 µM and 1.45 µM in test [6]. Moreover, the GI50 in test [7] is 1.05 µM; in test [9], 1.52 µM; in test [10], 2.18 µM. Moreover, the TGI in test [1] is 4.08 µM and 12.2 µM and 2.06 µM; in [2] it was 2.64 µM and 7.74 µM and 2.19 µM; in test [3], 1.43 µM and 3.86 µM and 4.56 µM; in [4], 1.22 µM and 3.25 µM and 1.69 µM; in test [5], 4.99 µM and 10.2 µM and 4.74 µM; in test [6], 3.95 µM and 7.99 µM and 8.8 µM. Further, the TGI in test [7] is 2.68 µM and 2.64 µM; in test [8], 8.52 µM and 25 µM and 2.78 µM; in test [9] it was 19.6 µM and 15.6 µM and > 100 µM; in [10] it was 7.12 µM and 14.9 µM.

On to `Clc1ccc2c(NCCN3CCN(c4ccnc(N5CCCC5)n4)CC3)ccnc2c1`, for which the GI50 in test [1] is 1.91 µM; in test [2] it was 2.13 µM; in test [3], 6.88 µM; in test [4], 1.79 µM; in [5] it was 3.32 µM; in test [6], 21.8 µM. Moreover, the GI50 in test [7] was 2.39 µM; in [8], 4.23 µM; in test [9] it was 1.47 µM; in test [10], 1.77 µM. Moreover, the concentration for total growth inhibition (TGI) in test [1] amounted to 3.61 µM; in test [2], 4.51 µM; in [3], 22.7 µM; in test [4], 3.19 µM; in [5], 11.1 µM; in test [6], 41 µM. The concentration for total growth inhibition (TGI) in test [7] amounted to 8.51 µM; in test [8], 16.8 µM; in test [9] it was 9.76 µM; in test [10], 3.66 µM.

In the case of `c1cc(-c2cnn3nc(N4CCOCC4)ccc23)nc(NC2CC2)n1`, the GI50 in test [1] is 9.04 µM; in test [2], 7.76 µM; in test [3] it was 7.19 µM; in test [4], 5.76 µM; in test [5], 8.9 µM; in test [6], 5.59 µM. Also, the GI50 in test [7] is 5.66 µM; in test [8], 7.87 µM; in test [9], more than 23.6 µM; in test [10], 6.64 µM. Further, the total growth inhibition concentration (TGI) in [1] is more than 25 µM; in test [2] it was more than 25 µM; in test [3], more than 25 µM; in test [4], 16.7 µM; in [5], more than 25 µM; in [6] it was more than 25 µM. For the same molecule, the TGI in test [7] is 16.6 µM; in test [8], more than 25 µM; in test [9], more than 25 µM; in test [10] it was more than 23.7 µM.

With `C[C@@]1(CBr)C[C@@](C)(/C=C/Cl)[C@@H](Cl)C[C@H]1Cl`, the total growth inhibition concentration (TGI) in test [1] was determined as 29 µM; in [2], 29.1 µM; in test [3] it was 27.9 µM; in [4], 26.1 µM; in [5] it was 27 µM; in test [6], 26.1 µM. Moreover, the concentration for total growth inhibition (TGI) amounted to 30.8 µM in [7], 26.1 µM in [8], 25.3 µM in test [9] and 31.3 µM in test [10].

Consider `Cc1ccc(C(=O)Nc2ccccc2C(=O)N/N=C(\c2ccccc2)c2ccccn2)cc1`, for which the GI50 in test [1] is 0.272 µM; in [2], 0.36 µM; in test [3], 0.723 µM; in [4] it was 0.271 µM; in [5] it was 0.362 µM; in test [6] it was 0.895 µM. The GI50 is 0.63 µM in [7], 0.703 µM in test [8], 0.855 µM in test [9] and 0.597 µM in [10]. For the same molecule, the concentration for total growth inhibition (TGI) in [1] was 3.26 µM; in test [2], 6.7 µM; in [3], more than 100 µM; in [4] it was 1.15 µM; in test [5], more than 100 µM; in [6], more than 100 µM. Further, the TGI in test [8], in test [9] and in [10] was more than 100 µM throughout.

For `CC(=O)OC1C/C(C)=C/[C@H](O)CC(C)/C=C/[C@@]2(C)CCC(C(C)(C)O)C12` (stereo partly drawn), the TGI in test [1], in [2], in test [3], in test [4], in test [5] and in test [6] was more than 100 µM throughout. Moreover, the total growth inhibition concentration (TGI) in [7], in [8], in test [9] and in test [10] was more than 100 µM in each case.

On to `NCCCn1c2c(c3ccc([N+](=O)[O-])cc3c1=O)C(=O)c1cc(Cl)ccc1-2`, for which the 50% growth inhibitory concentration (GI50) is less than 0.01 µM in test [1]; less than 0.01 µM in test [2]; less than 0.01 µM in test [3]; less than 0.0151 µM in test [4]; less than 0.01 µM in test [5]; less than 0.01 µM in test [6]. Besides, the 50% growth inhibitory concentration (GI50) is 0.0274 µM in test [7], less than 0.01 µM in test [8], less than 0.01 µM in [9] and 0.126 µM in test [10]. Also, the TGI was 0.0318 µM in [1]; 0.0696 µM in [2]; 0.055 µM in test [3]; 0.25 µM in [4]; 0.0369 µM in test [5]; 0.141 µM in [6]. For the same molecule, the TGI in test [7] came to 0.596 µM; in [8], 0.116 µM; in test [9] it was 0.0411 µM; in test [10], 1.67 µM.

Turning to `CCN1CCN(c2nc(C)cc(N(CCCNc3ccnc4cc(Cl)ccc34)Cc3ccco3)n2)CC1`, the GI50 in test [1] was 1.89 µM; in test [2], 1.97 µM; in [3] it was 9.9 µM; in test [4], 1.81 µM; in test [5], 1.85 µM; in test [6], 15.3 µM. Moreover, the GI50 in test [7] is 6.53 µM; in test [8] it was 4.51 µM; in [9], 2.3 µM; in test [10], 1.82 µM. The total growth inhibition concentration (TGI) in [1] is 3.63 µM; in [2], 3.97 µM; in test [3], 27 µM; in test [4] it was 3.3 µM; in [5], 4.15 µM; in [6], 29.2 µM. Moreover, the total growth inhibition concentration (TGI) worked out at 49.1 µM in test [7], 16.5 µM in test [8], 10.4 µM in [9] and 3.6 µM in test [10].

In the case of `C=C(C)C(=O)N1c2ccc(OC)cc2CC1C(=O)OCC` (stereo not drawn), the concentration for total growth inhibition (TGI) in test [1], in [2], in test [3], in test [4], in test [5] and in test [6] was more than 100 µM throughout. Also, the concentration for total growth inhibition (TGI) in test [7], in test [8], in [9] and in [10] was more than 100 µM throughout.

Consider `C#CCOc1cccc(Nc2ncnc3c2ncn3C2CCN(C(=O)CCl)C2)c1` (stereo not drawn), for which the GI50 in [1] was 16.9 µM; in test [2], 18.1 µM; in test [3] it was 18.4 µM; in test [4] it was 17.2 µM; in test [5], 18.9 µM; in test [6] it was 29.5 µM. Also, the GI50 in test [7] was more than 100 µM; in [8], more than 100 µM; in [9], 25.7 µM; in test [10] it was 23 µM. In addition, the TGI is 48.5 µM in test [1]; 35.4 µM in test [2]; 41.3 µM in [3]; 34.2 µM in [4]; 36.8 µM in [5]; more than 100 µM in test [6]. In addition, the TGI is more than 100 µM in test [7], more than 100 µM in test [8], more than 100 µM in test [9] and 53.9 µM in test [10].

For the molecule `O=C1C(Cl)=C(Nc2ccc3c(c2NC2=C(Cl)C(=O)c4ccccc4C2=O)C(=O)c2ccccc2C3=O)C(=O)c2ccccc21`, the GI50 in [1] was 1.02 µM; in test [2], 1.3 µM; in test [3], 1.08 µM; in [4], 0.386 µM; in test [5], 2.91 µM; in [6], 2.7 µM. Moreover, the GI50 was 2.02 µM in test [7], 1.95 µM in [8], 2.75 µM in [9] and 2.87 µM in [10]. Besides, the TGI amounted to 2.29 µM in [1]; 2.9 µM in test [2]; 4.1 µM in test [3]; 1.47 µM in [4]; 9.6 µM in test [5]; 8.9 µM in test [6]. The total growth inhibition concentration (TGI) in [7] is 4.2 µM; in [8], 4.61 µM; in test [9], 7.81 µM; in test [10], 8.61 µM.

Consider `COc1cc(C(=C2SCCS2)c2nccc3cc(OC)c(OC)cc23)c([N+](=O)[O-])cc1OC`, for which the TGI in test [1], in test [2], in test [3], in test [4], in [5] and in test [6] was more than 100 µM in each case. The concentration for total growth inhibition (TGI) in test [7], in [8], in test [9] and in test [10] was more than 100 µM in each case.

In the case of `O=C(O)CCc1nc(-c2ccccc2)c(-c2ccccc2)o1`, the concentration for total growth inhibition (TGI) in test [1], in [2], in test [3], in test [4], in test [5] and in test [6] was more than 100 µM throughout. In addition, the concentration for total growth inhibition (TGI) in test [7], in test [8], in test [9] and in test [10] was more than 100 µM throughout.

The record behind these values is PubChem BioAssay (NCI).
